Assay results taken from US10251394B2, “Molecules having pesticidal utility, and intermediates, compositions, and processes, related thereto” (Dow AgroSciences LLC, priority 2016, dated 2019).

How the values were obtained:
[1] = tested on: Cabbage Looper (Trichoplusia ni); assay: Bioassay on Cabbage Looper (CL), 128-well diet tray assay; type: in vivo; conditions: Cabbage Looper, Table ABC, read-out: CL rating
Outline: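 Mortality after five to seven days at 25° C (14:10 photoperiod), averaged over eight wells per compound. Diet in each well carried 50 μg/cm^2 of dried test molecule and received one to five second-instar larvae.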

[2] = tested on: Beet Armyworm (Spodoptera exigua); assay: Bioassay on Beet Armyworm (BAW), 128-well diet tray assay; type: in vivo; conditions: Beet Armyworm, Table ABC, read-out: BAW rating
Outline: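 Percent mortality, averaged over eight wells, was scored after five to seven days at 25° C under 14:10 light-dark. Each well's diet carried 50 μg/cm^2 of test molecule applied in acetone-water (90:10) and dried before one to five second-instar larvae were added.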

Compound | pest or weed control at 50 µg/cm2 [1] | pest or weed control at 50 µg/cm2 [2]
C=C(C)c1cc(C(/C=C(\F)c2ccc(C(=O)N[C@H](C)C(=O)NCC(F)(F)F)c(C(F)(F)F)c2)C(F)(F)F)cc(Cl)c1Cl (stereo partly drawn) [F187, 4-((Z)-3-(3,4-Dichloro-5-(prop-1-en-2-yl)phenyl)-1,4,4,4-tetrafluoro-but-1-en-1-yl)-N—((R)-1-oxo-1-((2,2,2-trifluoroethyl)amino)propan-2-yl)-2-(trifluoromethyl)benzamide] | 50 to 100% | 50 to 100%
C/C=C/c1cc(C(/C=C(\F)c2ccc(C(=O)N[C@H](C)C(=O)NCC(F)(F)F)c(C(F)(F)F)c2)C(F)(F)F)cc(Cl)c1Cl (stereo partly drawn) [F188, 4-((Z)-3-(3,4-Dichloro-5-((E)-prop-1-en-1-yl)phenyl)-1,4,4,4-tetrafluorobut-1-en-1-yl)-N—((R)-1-oxo-1-((2,2,2-trifluoroethyl)amino)propan-2-yl)-2-(trifluoromethyl)benzamide] | 50 to 100% | 50 to 100%
C#Cc1cc(C(/C=C(\F)c2ccc(C(=O)N[C@H](C)C(=O)NCC(F)(F)F)c(C(F)(F)F)c2)C(F)(F)F)cc(Cl)c1Cl (stereo partly drawn) [F189, 4-((Z)-3-(3,4-Dichloro-5-ethynylphenyl)-1,4,4,4-tetrafluorobut-1-en-1-yl)-N—((R)-1-oxo-1-((2,2,2-trifluoroethyl)amino)propan-2-yl)-2-(trifluoromethyl)benzamide] | 50 to 100% | 50 to 100%
CC#Cc1cc(C(/C=C(\F)c2ccc(C(=O)N[C@H](C)C(=O)NCC(F)(F)F)c(C(F)(F)F)c2)C(F)(F)F)cc(Cl)c1Cl (stereo partly drawn) [F190, 4-((Z)-3-(3,4-Dichloro-5-(prop-1-yn-1-yl)phenyl)-1,4,4,4-tetrafluorobut-1-en-1-yl)-N—((R)-1-oxo-1-((2,2,2-trifluoroethyl)amino)propan-2-yl)-2-(trifluoromethyl)benzamide] | 50 to 100% | 50 to 100%
C[C@@H](NC(=O)c1ccc(/C(F)=C/C(c2cc(Cl)c(Cl)c(C#CC(C)(C)C)c2)C(F)(F)F)cc1C(F)(F)F)C(=O)NCC(F)(F)F (stereo partly drawn) [F191, 4-((Z)-3-(3,4-Dichloro-5-(3,3-dimethylbut-1-yn-1-yl)phenyl)-1,4,4,4-tetrafluorobut-1-en-1-yl)-N—((R)-1-oxo-1-((2,2,2-trifluoroethyl)amino)propan-2-yl)-2-(trifluoromethyl)benzamide] | 50 to 100% | 50 to 100%
C[C@@H](NC(=O)c1ccc(/C(F)=C/C(c2cc(Cl)c(Cl)c(C#N)c2)C(F)(F)F)cc1C(F)(F)F)C(=O)NCC(F)(F)F (stereo partly drawn) [F192, 4-((Z)-3-(3,4-Dichloro-5-cyanophenyl)-1,4,4,4-tetrafluorobut-1-en-1-yl)-N—((R)-1-oxo-1-((2,2,2-trifluoroethyl)amino)propan-2-yl)-2-(trifluoromethyl)benzamide] | 50 to 100% | 50 to 100%
C[C@@H](NC(=O)c1ccc(/C(F)=C/C(c2cc(Cl)c(Cl)c(C(C)(F)F)c2)C(F)(F)F)cc1C(F)(F)F)C(=O)NCC(F)(F)F (stereo partly drawn) [F193, 4-((Z)-3-(3,4-Dichloro-5-(1,1-difluoroethyl)phenyl)-1,4,4,4-tetrafluorobut-1-en-1-yl)-N—((R)-1-oxo-1-((2,2,2-trifluoroethyl)amino)propan-2-yl)-2-(trifluoromethyl)benzamide] | 50 to 100% | 50 to 100%
C[C@@H](NC(=O)c1ccc(/C(F)=C/C(c2cc(Cl)c(Cl)c(CF)c2)C(F)(F)F)cc1C(F)(F)F)C(=O)NCC(F)(F)F (some centres unmarked) [F194] | 50 to 100% | 50 to 100%
C[C@@H](NC(=O)c1ccc(/C(F)=C/C(c2cc(Cl)c(Cl)c(C(F)F)c2)C(F)(F)F)cc1C(F)(F)F)C(=O)NCC(F)(F)F (stereo partly drawn) [F195, 4-((Z)-3-(3,4-dichloro-5-(difluoromethyl)phenyl)-1,4,4,4-tetrafluorobut-1-en-1-yl)-N—((R)-1-oxo-1-((2,2,2-trifluoroethyl)amino)propan-2-yl)-2-(trifluoromethyl)benzamide] | 50 to 100% | 50 to 100%
C=Cc1cc(C(/C=C(\F)c2ccc(C(=O)N[C@@H]3CON(CC(F)(F)F)C3=O)c(C(F)(F)F)c2)C(F)(F)F)cc(Cl)c1Cl (stereo partly drawn) [F196, 4-((Z)-3-(3,4-Dichloro-5-vinylphenyl)-1,4,4,4-tetrafluorobut-1-en-1-yl)-N—((R)-3-oxo-2-(2,2,2-trifluoroethyl)isoxazolidin-4-yl)-2-(trifluoromethyl)benzamide] | 50 to 100% | 50 to 100%
O=C(N[C@@H]1CON(CC(F)(F)F)C1=O)c1ccc(/C(F)=C/C(c2cc(Cl)c(Cl)c(Br)c2)C(F)(F)F)cc1C(F)(F)F (stereo partly drawn) [F197, 4-((Z)-3-(3-Bromo-4,5-dichlorophenyl)-1,4,4,4-tetrafluorobut-1-en-1-yl)-N—((R)-3-oxo-2-(2,2,2-trifluoroethyl)isoxazolidin-4-yl)-2-(trifluoromethyl)benzamide] | 50 to 100% | 50 to 100%
O=C(N[C@@H]1CON(CC(F)(F)F)C1=O)c1ccc(/C(F)=C/C(c2cc(Cl)c(Cl)c(Cl)c2)C(F)(F)F)cc1Br (stereo partly drawn) [F198, 2-Bromo-N—((R)-3-oxo-2-(2,2,2-trifluoroethyl)isoxazolidin-4-yl)-4-((Z)-1,4,4,4-tetrafluoro-3-(3,4,5-trichlorophenyl)but-1-en-1-yl)benzamide] | 50 to 100% | 50 to 100%
O=C(N[C@@H]1CON(CC(F)(F)F)C1=O)c1ccc(/C(F)=C/C(c2cc(Cl)c(Cl)c(C(F)F)c2)C(F)(F)F)cc1C(F)(F)F (stereo partly drawn) [F199, 4-((Z)-3-(3,4-Dichloro-5-(difluoromethyl)phenyl)-1,4,4,4-tetrafluoro-but-1-enyl)-N—((R)-3-oxo-2-(2,2,2-trifluoroethyl)isoxazolidin-4-yl)-2-(trifluoromethyl)benzamide] | 50 to 100% | 50 to 100%
C=Cc1cc(/C(F)=C/C(c2cc(Cl)c(Cl)c(Cl)c2)C(F)(F)F)ccc1C(=O)NCC(=O)NCC(F)(F)F (centres unmarked) [F200, (Z)—N-(2-Oxo-2-((2,2,2-trifluoroethyl)amino)ethyl)-4-(1,4,4,4-tetrafluoro-3-(3,4,5-trichlorophenyl)but-1-en-1-yl)-2-vinylbenzamide] | 50 to 100% | 50 to 100%
C=Cc1cc(/C(F)=C/C(c2cc(Cl)c(Cl)c(Cl)c2)C(F)(F)F)ccc1C(=O)N[C@H](C)C(=O)NCC(F)(F)F (stereo partly drawn) [F201, N—((R)-1-Oxo-1-((2,2,2-trifluoroethyl)amino)propan-2-yl)-4-((Z)-1,4,4,4-tetrafluoro-3-(3,4,5-trichlorophenyl)but-1-en-1-yl]-2-vinylbenzamide] | 50 to 100% | 50 to 100%
C[C@@H](NC(=O)c1ccc(/C(F)=C/C(c2cc(F)c(Cl)c(C(F)(F)F)c2)C(F)(F)F)cc1C(F)(F)F)C(=O)NCC(F)(F)F (stereo partly drawn) [F202, 4-((Z)-3-(4-Chloro-3-fluoro-5-(trifluoromethyl)phenyl)-1,4,4,4-tetrafluorobut-1-en-1-yl)-N—((R)-1-oxo-1-((2,2,2-trifluoroethyl)amino)propan-2-yl)-2-(trifluoromethyl)benzamide] | 50 to 100% | 50 to 100%
O=C(CNC(=O)c1ccc(/C(F)=C/C(c2cc(F)c(Cl)c(C(F)(F)F)c2)C(F)(F)F)cc1C(F)(F)F)NCC(F)(F)F (centres unmarked) [F203, (Z)-4-(3-(4-Chloro-3-fluoro-5-(trifluoromethyl)phenyl)-1,4,4,4-tetrafluoro-but-1-en-1-yl)-N-(2-oxo-2-((2,2,2-trifluoroethyl)amino)ethyl)-2-(trifluoromethyl)benzamide] | 50 to 100% | 50 to 100%
C=Cc1cc(/C(F)=C/C(c2cc(Cl)c(Cl)c(Cl)c2)C(F)(F)F)ccc1C(=O)N[C@@H]1CON(CC(F)(F)F)C1=O (stereo partly drawn) [F204, N—((R)-3-Oxo-2-(2,2,2-trifluoroethyl)isoxazolidin-4-yl)-4-((Z)-1,4,4,4-tetrafluoro-3-(3,4,5-trichlorophenyl)but-1-en-1-yl)-2-vinylbenzamide] | 50 to 100% | 50 to 100%
O=C(CNC(=O)c1ccc(/C(F)=C/C(c2ccc(C(F)(F)F)c(Cl)c2)C(F)(F)F)cc1C(F)(F)F)NCC(F)(F)F (centres unmarked) [F206, (Z)-4-(3-(3-Chloro-4-(trifluoromethyl)phenyl)-1,4,4,4-tetrafluorobut-1-en-1-yl)-N-(2-oxo-2-((2,2,2-trifluoroethyl)amino)ethyl)-2-(trifluoromethyl)benzamide] | 50 to 100% | 50 to 100%
C[C@@H](NC(=O)c1ccc(/C(F)=C/C(c2cc(Cl)cc(OCC(F)(F)F)c2)C(F)(F)F)cc1C(F)(F)F)C(=O)NCC(F)(F)F (stereo partly drawn) [F207, 4-((Z)-3-(3-chloro-5-(2,2,2-trifluoroethoxy)phenyl)-1,4,4,4-tetrafluorobut-1-en-1-yl)-N—((R)-1-oxo-1-((2,2,2-trifluoroethyl)amino)propan-2-yl)-2-(trifluoromethyl)benzamide] | 50 to 100% | 50 to 100%
O=C(CNC(=O)c1ccc(/C(F)=C/C(c2ccc(C(F)(F)F)c(F)c2)C(F)(F)F)cc1C(F)(F)F)NCC(F)(F)F (centres unmarked) [F211] | 50 to 100% | 50 to 100%
C[C@@H](NC(=O)c1ccc(/C(F)=C/C(c2cc(Cl)cc(C#CC(C)(C)C)c2)C(F)(F)F)cc1C(F)(F)F)C(=O)NCC(F)(F)F (stereo partly drawn) [F212, 4-((Z)-3-(3-Chloro-5-(3,3-dimethylbut-1-yn-1-yl)phenyl)-1,4,4,4-tetrafluorobut-1-en-1-yl)-N—((R)-1-oxo-1-((2,2,2-trifluoroethyl)amino)propan-2-yl)-2-(trifluoromethyl)benzamide] | 50 to 100% | 50 to 100%
